Among the data in ChEMBL document CHEMBL3098049, “Concise synthesis and biological evaluation of 2-Aroyl-5-amino benzo[b]thiophene derivatives as a novel class of potent antimitotic agents” (J Med Chem, 2013) are selectivity ratio and IC50 values, retold here.

pIC50: −log10 of the molar value.

Series [1] is described as follows: Selectivity ratio of IC50 for HUVEC to IC50 for mouse L1210 cells. Type of series: ADME, cell-based. As to conditions: HUVEC and L1210 cells, read-out: Ratio IC50.
In another series the test system is HeLa. Kind of series: Cytotoxicity against human HeLa cells assessed as growth inhibition after 48 hrs by coulter counting analysis. Type of series: functional, cell-based.

On to `COc1cc(C(=O)c2cc3cc(N)cc(OC)c3s2)cc(OC)c1OC`, for which, in series [1], the selectivity ratio came out at 460. For the same molecule, in the series on HeLa, the negative logarithm of the IC50 (pIC50) is 8.10.

As a reminder, the pIC50 is the IC50 on a negative log10 scale, so that one unit is a factor of ten.
